Test system: progression of CKD induced by high-salt diet following recovery from I/R injury
Assay: AKI-to-CKD progression: unilateral I/R, contralateral nephrectomy and high salt diet in rats (Study III)
Type: in vivo, rat
Text: Study III was designed to investigate SOCE on progression of CKD induced by high-salt diet following recovery from I/R injury using a model of AKI-to-CKD described previously. Rats acclimated to a standard diet (AIN 76A, Dyets, Bethlehem, PA) containing 0.4% NaCl were subjected to left unilateral I/R or sham surgery and allowed to recover for ˜5 weeks. Rats were then subjected to right unilateral nephrectomy and subsequently exposed to elevated dietary Na+ (AIN76A plus 4% NaCl) for an additional 4 weeks (FIG. 9). Sham-control rats were not subjected to renal pedicle clamping, but were subjected to unilateral nephrectomy. Simultaneous with exposure to high salt diet, rats were randomly assigned to vehicle or YM58483 treatment (1mg·kg^−1·day^−1; p.o.). At the end of all studies, rats were deeply anesthetized with 50-100 mg/kg pentobarbital (Fatal Plus, Vortech, Dearborn, MI) and kidneys harvested for analysis.
To measure creatinine, tail blood was collected in heparin containing tubes and centrifuged to collect plasma. Plasma creatinine was measured using a Pointe Scientific Analyzer and Creatinine Assay reagents using methods outlined by the manufacturer (Pointe Scientific, Canton MI). Urine was collected for 24 hours by placing rats in metabolic cages and urine volume was determined gravimetrically. Urine creatinine was measured using a colorimetric assay adopted for microplate readers. Creatinine clearance was measured using UCr*V/PCr.
At the time of tissue harvest, kidneys were bisected and one half was fixed by immersion in 10% formalin, embedded in paraffin and 5 μm sections stained with picrosirus red to assess fibrosis. For quantitative analysis, five random images of renal outer medulla were obtained using Leica DMLB (Scientific Instruments, Columbus, OH) microscope with a 20× objective. The percent area of picrosirus red stain was scored in a blinded fashion using Image J (NIH).
Total RNA was obtained from kidney using Trizol and the Zymogen RNA extraction kit and cDNA was prepared using MMLV enzyme (Invitrogen, Carlsburg, CA). Quantitative real time PCR (qPCR) using gene specific primers was performed using ABI 7500 (Applied Biosystems, Foster City, CA). mRNA values were calculated using 2^−ΔΔCt. Specific primers sequences for IL-6 (catalog #Rn01410330_m1), Kim-1 (#Rn00597703_m1) and IL17 (Rn01757168_m1) were purchased from ThermoFisher (Waltham, MA).
Freshly harvested kidneys were minced and digested in liberase (2 μg/ml. Roche, Indianapolis IN) for 15 min at 37° C. using Gentle MACs (Miltenyli, San Diego, CA). The digested tissue was filtered through a 100-μm mesh and washed with RPMI containing 10% fetal bovine serum (Invitrogen). Mononuclear cells were isolated using Percol (Sigma) density gradient centrifugation.
To evaluate protein expression of IL17 or Orai1, Orai2 or Orai3, cells were restimulated with PMA and ionomycin for 6 hours in the presence of monensin (Golgistop, 1 μg·ml, BD Biosciences) permeabilized with saponin ([…]) and stained with relevant antibody. Cells were scanned using flow cytometry (FACSCalibur, BD Biosciences, San Jose, CA) and scans were analyzed using Flowjo software (Tree Star, Ashland, OR).
Study III was designed to investigate SOCE on progression of CKD induced by high-salt diet following recovery from I/R injury using a model of AKI-to-CKD described previously. Rats acclimated to a standard dict (AIN 76A, Dyets, Bethlehem, PA) containing 0.4% NaCl were subjected left unilateral I/R or sham surgery and allowed to recover for ˜5 weeks. Rats were then subjected to right unilateral nephrectomy and subsequently exposed to elevated dietary Na+ (AIN76A plus 4% NaCl) for an additional 4 weeks (FIG. 9). Sham-control rats were not subjected to renal pedicle clamping, but were subjected to unilateral nephrectomy. Simultaneous with exposure to high salt dict, rats were randomly assigned to vehicle or YM58483 treatment (1 mg·kg−1·day−1; p.o.). […]

[1] = 1 mg/kg/day p.o. during 4 weeks high salt diet

Cc1nnsc1C(=O)Nc1ccc(-n2nc(C(F)(F)F)cc2C(F)(F)F)cc1 [YM58483/BPT2, N-[4-[3,5-Bis(trifluoromethyl)-1H-pyrazol-1-yl]phenyl]-4-methyl-1,2,3-thiadiazole-5-carboxamide]
significantly attenuated: Kidney IL6 mRNA expression [1] | expression of Kim-1 [1] | increase in B cells [1] | increase in MΦ/dendritic cells [1] | increase in kidney CD4+ cells [1] | increase in kidney CD8+ cells [1] | increased expression (re-stimulation) of IL17+ cells [1] | urinary albumin excretion [1] | creatinine clearance (reduction relative to sham) (end of study, 9 weeks post I/R) | development of interstitial fibrosis (picrosirius red, renal outer medulla)

Source: patent US20250073202A1, “METHODS TO TREAT RENAL DISORDERS USING CALCIUM CHANNEL INHIBITORS” (The Trustees of Indiana University, priority 2018, published 2025)
